Laboratory results as given in publication PMC12669672, “Structural insights into selective and dual antagonism of EP2 and EP4 prostaglandin receptors” (The EMBO Journal, 2025).
Several values for one entry are separate records, joined by “and”; a condition that tells them apart may be missing. Equal values may be shown once. Read-outs that look alike come from different tables or passages of the source.

Experiments:
EP4 = target: EP4; parameters: method as in Ganesh et al, 2013; details: antagonism towards EP4; ref Ganesh et al, 2013; cited from earlier work
EP2 = target: EP2; parameters: method as in Ganesh et al, 2013; details: antagonism towards EP2; ref Ganesh et al, 2013; cited from earlier work
EP2-L301I = target: T1, EP2-L301I (Homo sapiens, UniProt P43116, L301I); assay: GloSensor cAMP assay, antagonism of PGE2-induced cAMP, chimeric studies; assay type: cell-based; details: single experiments 1st-3rd
T1 construct: The full-length EP2 or EP4 was cloned into the pcDNA3.1 vector; FLAG (N); expressed in transfected cells; host or cells: AD293 cells
T1 sequence (P43116 whole entry L301I): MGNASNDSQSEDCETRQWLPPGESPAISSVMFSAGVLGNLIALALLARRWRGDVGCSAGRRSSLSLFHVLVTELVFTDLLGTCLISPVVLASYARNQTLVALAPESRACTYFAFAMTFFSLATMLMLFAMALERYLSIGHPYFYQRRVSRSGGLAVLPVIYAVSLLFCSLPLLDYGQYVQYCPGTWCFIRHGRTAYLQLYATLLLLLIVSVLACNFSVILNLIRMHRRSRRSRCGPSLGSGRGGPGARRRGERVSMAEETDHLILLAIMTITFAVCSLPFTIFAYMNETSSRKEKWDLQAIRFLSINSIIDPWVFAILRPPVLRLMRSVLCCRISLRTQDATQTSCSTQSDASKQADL
Procedure, shortened: (§1)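 Read-out is GloSensor luminescence from AD293 cells co-expressing FLAG-tagged EP2 variant and GloSensor22F biosensor, transfected at a 1:1 plasmid ratio. Cells were plated at 4000 per well in CO2-independent medium containing 2% cAMP reagent, incubated 1 h at 37 °C, then read.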

EP2 S28A = target: T2, EP2 S28A (Homo sapiens, UniProt P43116, S28A); assay: GloSensor cAMP assay, antagonism of PGE2-induced cAMP; assay type: cell-based; details: for cAMP activity (∆pIC50 from EP2 WT): TG6-129, S28A
T2 construct: The full-length EP2 or EP4 was cloned into the pcDNA3.1 vector; FLAG (N); expressed in transfected cells; host or cells: AD293 cells
T2 sequence (P43116 whole entry S28A): as the sequence (P43116 whole entry L301I) above, with S28A, I301L counted along it
Procedure, shortened: as §1

EP2 E23A = target: T3, EP2 E23A (Homo sapiens, UniProt P43116, E23A); assay: as above; assay type: cell-based
T3 construct: The full-length EP2 or EP4 was cloned into the pcDNA3.1 vector; FLAG (N); expressed in transfected cells; host or cells: AD293 cells
T3 sequence (P43116 whole entry E23A): as the sequence (P43116 whole entry L301I) above, with E23A, I301L counted along it
Procedure, shortened: as §1

EP4 I317A = target: T4, EP4 I317A (Homo sapiens, UniProt P35408, I317A); assay: as above; assay type: cell-based; details: for cAMP activity (∆pIC50 from EP4 WT): TG6-129, I317A
T4 construct: The full-length EP2 or EP4 was cloned into the pcDNA3.1 vector; FLAG (N); expressed in transfected cells; host or cells: AD293 cells
T4 sequence (P35408 whole entry I317A): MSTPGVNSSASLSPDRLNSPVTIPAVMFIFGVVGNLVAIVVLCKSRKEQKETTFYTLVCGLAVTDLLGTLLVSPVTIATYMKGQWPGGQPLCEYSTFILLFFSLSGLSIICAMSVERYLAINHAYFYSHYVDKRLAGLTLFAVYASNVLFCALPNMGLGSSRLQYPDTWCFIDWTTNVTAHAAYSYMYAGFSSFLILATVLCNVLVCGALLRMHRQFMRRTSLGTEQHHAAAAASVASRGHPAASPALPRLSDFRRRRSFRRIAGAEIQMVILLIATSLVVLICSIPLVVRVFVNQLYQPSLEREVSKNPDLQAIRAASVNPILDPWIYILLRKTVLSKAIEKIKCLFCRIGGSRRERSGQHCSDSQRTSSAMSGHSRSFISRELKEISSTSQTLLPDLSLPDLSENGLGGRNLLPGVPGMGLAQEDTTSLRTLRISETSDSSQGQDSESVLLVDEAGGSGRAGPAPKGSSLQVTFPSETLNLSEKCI

[1] = target: T5, constitutively active EP2 S28A (Homo sapiens, UniProt P43116, S28A); assay: GloSensor cAMP assay, inhibition of constitutive activity; assay type: cell-based
T5 construct: The full-length EP2 or EP4 was cloned into the pcDNA3.1 vector; FLAG (N); expressed in transfected cells; host or cells: AD293 cells
T5 sequence (P43116 whole entry S28A): as the sequence (P43116 whole entry L301I) above, with S28A, I301L counted along it
Procedure, shortened: as §1

[2] = target: T6, constitutively active EP4 I317A (Homo sapiens, UniProt P35408, I317A); assay: as above; assay type: cell-based
T6 construct: The full-length EP2 or EP4 was cloned into the pcDNA3.1 vector (Invitrogen), incorporating an N-terminal FLAG tag; expressed in transfected cells; host or cells: AD293
T6 sequence (P35408 whole entry I317A): as the sequence (P35408 whole entry I317A) above

[3] = target: T7, constitutively active EP2 E23A (Homo sapiens, UniProt P43116, E23A); assay: as above; assay type: cell-based
T7 construct: The full-length EP2 or EP4 was cloned into the pcDNA3.1 vector; FLAG (N); expressed in transfected cells; host or cells: AD293 cells
T7 sequence (P43116 whole entry E23A): as the sequence (P43116 whole entry L301I) above, with E23A, I301L counted along it
Procedure, shortened: as §1

[4] = 1 h, TG6-129 log([M]) -12, read-out: % cAMP activity (normalized to WT)
[5] = no PGE2, pIC50 mutant - pIC50 WT, mean

remaining activity at 10 µM (EP2-L301I; 1 h, ligand log([M]) -5, Fig. S7B, read-out: % cAMP activity (normalized to WT)): 16.7%
remaining activity at 1 µM (EP2-L301I; 1 h, ligand log([M]) -6, Fig. S7B, read-out: % cAMP activity (normalized to WT)): 17.9%
remaining activity at 0.1 µM (EP2-L301I; 1 h, ligand log([M]) -7, Fig. S7B, read-out: % cAMP activity (normalized to WT)): 74.8%
remaining activity at 0.0001 µM (EP2-L301I; 1 h, ligand log([M]) -10, Fig. S7B, read-out: % cAMP activity (normalized to WT)): 111%
remaining activity at 10 pM (EP2-L301I; 1 h, ligand log([M]) -11, Fig. S7B, read-out: % cAMP activity (normalized to WT)): 123%
remaining activity at 1 pM (EP2-L301I; 1 h, ligand log([M]) -12, Fig. S7B, read-out: % cAMP activity (normalized to WT)): 120%
cAMP activity (∆pIC50 from EP2 WT) (EP2-L301I; Appendix Fig. S7A): -0.046 and -0.334 and -0.171
IC50 (EP2 S28A): 0.0363 µM
remaining activity at 10 pM (EP2 S28A; 1 h, TG6-129 log([M]) -11, read-out: % cAMP activity (normalized to WT)): 109%
remaining activity at 1 pM (EP2 S28A; [4]): 106%
cAMP activity (∆pIC50 from EP2 WT) (EP2 S28A; Mean): 0.282
cAMP activity (∆pIC50 from EP2 WT) (EP2 S28A; single experiments 1st-3rd): 0.159 and 0.319 and 0.367
IC50 (EP2 E23A): 0.0204 µM
remaining activity at 1 pM (EP2 E23A; [4]): 74.1%
cAMP activity (∆pIC50 from EP2 WT) (EP2 E23A; TG6-129, E23A, Mean): 0.563
IC50 (EP4 I317A): 10.7 µM
remaining activity at 100 µM (EP4 I317A; 1 h, TG6-129 log([M]) -4.00, read-out: % cAMP activity (normalized to WT)): 16.3%
remaining activity at […] (EP4 I317A; 1 h, TG6-129 log([M]) -4.70, read-out: % cAMP activity (normalized to WT)): 19.5%
remaining activity at […] (EP4 I317A; 1 h, TG6-129 log([M]) -5.40, read-out: % cAMP activity (normalized to WT)): 47.7%
remaining activity at […] (EP4 I317A; 1 h, TG6-129 log([M]) -6.10, read-out: % cAMP activity (normalized to WT)): 54.4%
remaining activity at 0.1585 µM (EP4 I317A; 1 h, TG6-129 log([M]) -6.80, read-out: % cAMP activity (normalized to WT)): 59.7%
remaining activity at 0.03236 µM (EP4 I317A; 1 h, TG6-129 log([M]) -7.49, read-out: % cAMP activity (normalized to WT)): 57.3%
remaining activity at 0.006457 µM (EP4 I317A; 1 h, TG6-129 log([M]) -8.19, read-out: % cAMP activity (normalized to WT)): 60.6%
remaining activity at 0.001288 µM (EP4 I317A; 1 h, TG6-129 log([M]) -8.89, read-out: % cAMP activity (normalized to WT)): 53.5%
cAMP activity (∆pIC50 from EP4 WT) (EP4 I317A; Mean): 0.074
cAMP activity (∆pIC50 from EP4 WT) (EP4 I317A; single experiments 1st-3rd): 0.047 and -0.037 and 0.211
IC50 [1]: 0.0389 µM
remaining activity at 10 µM ([1]; 1 h, TG6-129 log([M]) -5, EP2-S28A, read-out: % cAMP activity (normalized to WT)): 8.3%
remaining activity at 1 µM ([1]; 1 h, TG6-129 log([M]) -6, EP2-S28A, read-out: % cAMP activity (normalized to WT)): 8.69%
remaining activity at 0.001 µM ([1]; 1 h, TG6-129 log([M]) -9, EP2-S28A, read-out: % cAMP activity (normalized to WT)): 255%
TG6-129 cAMP activity (∆pIC50 from EP2 WT), Mean ([1]; S28A, Mean): 0.422
TG6-129 cAMP activity (∆pIC50 from EP2 WT) ([1]; S28A, single experiments 1st-3rd): 0.401 and 0.405 and 0.460
ΔpIC50 [1, 5]: 0.42 ± 0.02
IC50 [2]: 3.55 µM
remaining activity at 100 µM ([2]; 1 h, TG6-129 log([M]) -4.00, EP4-I317A, read-out: % cAMP activity (normalized to WT)): 6.11%
remaining activity at […] ([2]; 1 h, TG6-129 log([M]) -4.70, EP4-I317A, read-out: % cAMP activity (normalized to WT)): 11.7%
remaining activity at […] ([2]; 1 h, TG6-129 log([M]) -5.40, EP4-I317A, read-out: % cAMP activity (normalized to WT)): 33.6%
remaining activity at […] ([2]; 1 h, TG6-129 log([M]) -6.10, EP4-I317A, read-out: % cAMP activity (normalized to WT)): 68.9%
remaining activity at 0.1585 µM ([2]; 1 h, TG6-129 log([M]) -6.80, EP4-I317A, read-out: % cAMP activity (normalized to WT)): 80.8%
remaining activity at 0.03236 µM ([2]; 1 h, TG6-129 log([M]) -7.49, EP4-I317A, read-out: % cAMP activity (normalized to WT)): 80.3%
remaining activity at 0.006457 µM ([2]; 1 h, TG6-129 log([M]) -8.19, EP4-I317A, read-out: % cAMP activity (normalized to WT)): 83%
remaining activity at 0.001288 µM ([2]; 1 h, TG6-129 log([M]) -8.89, EP4-I317A, read-out: % cAMP activity (normalized to WT)): 79.7%
TG6-129 cAMP activity (∆pIC50 from EP4 WT), Mean ([2]; I317A, Mean): 0.256
ΔpIC50 [2, 5]: 0.26 ± 0.11
IC50 [3]: 0.0316 µM
remaining activity at 10 µM ([3]; 1 h, TG6-129 log([M]) -5, EP2-E23A, read-out: % cAMP activity (normalized to WT)): 5.62%
remaining activity at 1 µM ([3]; 1 h, TG6-129 log([M]) -6, EP2-E23A, read-out: % cAMP activity (normalized to WT)): 4.15%
remaining activity at 0.1 µM ([3]; 1 h, TG6-129 log([M]) -7, EP2-E23A, read-out: % cAMP activity (normalized to WT)): 17.9%
remaining activity at 0.001 µM ([3]; 1 h, TG6-129 log([M]) -9, EP2-E23A, read-out: % cAMP activity (normalized to WT)): 93.8%
remaining activity at 0.0001 µM ([3]; 1 h, TG6-129 log([M]) -10, EP2-E23A, read-out: % cAMP activity (normalized to WT)): 108%
remaining activity at 10 pM ([3]; 1 h, TG6-129 log([M]) -11, EP2-E23A, read-out: % cAMP activity (normalized to WT)): 111%
remaining activity at 1 pM ([3]; 1 h, TG6-129 log([M]) -12, EP2-E23A, read-out: % cAMP activity (normalized to WT)): 98%
TG6-129 cAMP activity (∆pIC50 from EP2 WT), Mean ([3]; E23A, Mean): 0.363
TG6-129 cAMP activity (∆pIC50 from EP2 WT) ([3]; E23A, single experiments 1st-3rd): 0.381 and 0.341 and 0.367
ΔpIC50 [3, 5]: 0.36 ± 0.01
Structure (SMILES): CCc1nnc(NS(=O)(=O)c2ccc(NC(=S)NC(=O)/C=C/c3ccc(F)cc3)cc2)s1 [TG6-129]
Kd (EP4): 3.9 µM
Kd (EP2): 0.0088 µM
